Data set [1] deals with RVFV MP-12. The class given is cell-based, Rift Valley fever virus. On the set-up: relative RVFV infection in neurons treated with TLR2 ligands, Rep 1 / relative RVFV infection in neurons treated with TLR2 ligands, Rep 2: unit not given here.
The next data set concerns RVFV-DiD. The class given is cell-based, Rift Valley fever virus. The settings on record: 1h.
Data set [2] concerns RVFV MP-12. The class given is cell-based, Rift Valley fever virus. The note with it: 24h.
In data set [3] the test system is VSV-RVFV (recombinant VSV expressing RVFV glycoproteins Gn and Gc). The class given is cell-based, vesicular stomatitis virus / RVFV ZH501 glycoproteins. The settings on record: 14h.
Data set [4] shares this test system. The class given is cell-based, vesicular stomatitis virus / RVFV ZH501 glycoproteins.
Data set [5] relates to RVFV ZH501. The settings on record: mouse, in vivo.
Data set [6] has as its system RVFV ZH501. The arrangement: species or system mouse (C57BL/6). The settings on record: mouse, in vivo.
The subject of data set [7] is RVFV MP-12. The class given is cell-based, Rift Valley fever virus. The note with it: 10μg/mL.
The test system of data set [8] is VSV-GFP. The note with it: 2 h.
For data set [9], the system named is RVFV ZH501. The arrangement: species or system mouse (C57BL/6). The settings on record: mouse, in vivo. This is another data set of the same source.
The subject of data set [10] is RVFV ZH501. On the set-up: species or system mouse (C57BL/6). The settings on record: mouse, in vivo. The source holds these as a separate data set.
Data set [11] deals with RVFV MP-12. It counts as cell-based, Rift Valley fever virus. The settings on record: 10μg/mL for 4h; 15h.
The test system of data set [12] is RVFV MP-12. The class given is cell-based, Rift Valley fever virus. The note with it: 10μg/mL. This is another data set of the same source.
In data set [13] the test system is RVFV MP-12. The class given is cell-based, Rift Valley fever virus.
In data set [14] the test system is VSV-GFP. The class given is cell-based, vesicular stomatitis virus.
Data set [15] relates to RVFV MP-12. The class given is cell-based, Rift Valley fever virus. The source holds these as a separate data set.
For data set [16], the system named is RVFV ZH501. The arrangement: species or system mouse (C57BL/6). The settings on record: mouse, in vivo. The source holds these as a separate data set.
Data set [17] concerns RVFV MP-12. The class given is cell-based, Rift Valley fever virus. The source holds these as a separate data set.
Data set [18] has as its system RVFV MP-12. It counts as cell-based, Rift Valley fever virus. The source holds these as a separate data set.
Data set [19] has as its system RVFV MP-12. The class given is cell-based, Rift Valley fever virus. The settings on record: for RVFV RNA after lipopeptide pretreatment: 10μg/mL for 4h.
In data set [20] the test system is RVFV MP-12.
Data set [21] relates to Ifit2, Cxcl10, Tnfa, Cxcl1 RNA. The class given is cell-based, rat.
A further data set concerns La Crosse virus (LACV). It counts as cell-based.

“And” between values parts separate entries of the source, which are not always exact repeats. Equal entries are not always repeated. Where two headings read alike, the source gives them in different places. Peptide text beside a SMILES is read from it. * marks the point of attachment. X1 = CCCCCCCCCCCCCCCC(=O)OCC(C*)OC(=O)CCCCCCCCCCCCCCC; Palmitoyl = CCCCCCCCCCCCCCCC(=O)*

As for 2'3'-c-di-AMP, in the data set on RVFV MP-12 [1], the “Rep 1 rel infection” value is 1.031 and 1.083; the “Rep 2 rel infection” value is 1.123 and 1.1792.

Regarding `CO/C1=C\C(C)=C\[C@@H](C)[C@@H](O)[C@@H](C)C/C(C)=C/C=C/[C@H](OC)[C@@H]([C@@H](C)[C@@H](O)[C@H](C)[C@@]2(O)C[C@@H](O)[C@H](C)[C@@H](C(C)C)O2)OC1=O` [BafA, bafilomycin A1], the “number, intensity, and area of DiD puncta” value in the data set with RVFV-DiD is reported as “decreased”. For the same compound, in the data set with RVFV MP-12 [2], the “RVFV infection after pulse at pH 7.6” value is “blocked infection” and the “RVFV infection in acid-washed cells (pH 5.2)” value is given as “did not block infection”.

As for `CCNCc1nc2c(N)nc3ccccc3c2n1CC(C)(C)O` [Gardiquimod], the “neurotoxicity in screen (relative survival of neurons)” value in the data set on rat cortical neurons is given as “neurotoxic”.

As for `CC(C)Cn1cnc2c(N)nc3ccccc3c21` [Imiquimod], in the data set on rat cortical neurons, the “neurotoxicity in screen (relative survival of neurons)” value is “neurotoxic”.

For the compound `CCCCCCCCCCCCCCCC(=O)N[C@@H](CSCC(COC(=O)CCCCCCCCCCCCCCC)OC(=O)CCCCCCCCCCCCCCC)C(=O)N[C@@H](CO)C(=O)N[C@@H](CCCCN)C(=O)N[C@@H](CCCCN)C(=O)N[C@@H](CCCCN)C(=O)N[C@@H](CCCCN)C(=O)O` (some centres unmarked) [Pam3CSK4] (Palmitoyl-C(X1)SKKKK-OH), the VSV-RVFV replication entry in [3] and in data set [4] was “decreased VSV-RVFV replication” each time. Moreover, in the data set with RVFV ZH501 [5], the “survival of mice treated with Pam3CSK4 alone” value is recorded as “all mice treated with Pam3CSK4 alone survived”. In the data set with RVFV ZH501 [6], the “RVFV titers in the liver” value is listed as “significantly decreased”. In addition, in the data set with RVFV MP-12 [1], the “infection relative to vehicle in screen” value is on record as “below 60 % of vehicle”. In addition, the “relative RVFV infection in neurons treated with TLR2 ligands, Rep 1” value (“relative RVFV infection … Rep 1” below) with RVFV MP-12 [1] stood at 26.2716. In addition, the “relative RVFV infection in neurons treated with TLR2 ligands, Rep 2” value (shortened to “relative RVFV infection … Rep 2”) in the data set on RVFV MP-12 [1] is 51.9474. Moreover, the “viral RNA bound to cells” value in the data set on RVFV MP-12 [7] and in the data set with RVFV MP-12 [12] was “did not change” in each case. Further, the “IC50 against VSV” value with VSV-GFP [8] was > 10 µg/mL. In the data set on RVFV ZH501 [9], the “Neurologic disease at 3dpi? No (number of mice)” value was 2 and 3. Also, the “Neurologic disease at 3dpi? Yes (number of mice)” value with RVFV ZH501 [9] stood at 0. In the data set on RVFV ZH501 [9], the “mice with signs of severe (neurologic) disease” value was “zero out of three and 0/3”. Also, the “RVFV nucleoprotein immunofluorescence in brain and liver” value in the data set with RVFV ZH501 [10] is “decreased viral replication in the brain and liver”. For the same compound, the “hemorrhages caused by RVFV in the liver (H & E)” value with RVFV ZH501 [10] was “reduced hemorrhages”. Also, the RVFV titers in the data set on RVFV MP-12 [11] is 3.7 x 10^4 PFU / mL and 3.2 x 10^4 PFU / mL. In addition, the “number, intensity, and area of DiD puncta” value in the data set on RVFV-DiD is recorded as “decreased”. Further, the “internalized RVFV RNA” value in the data set with RVFV MP-12 [13] and in the data set with RVFV MP-12 [15] was “no difference” in each case. Besides, the “VSV RNA replication” value in the data set on VSV-GFP [14] is “unchanged”. For the same compound, the “RVFV infection in DMSO treated cells” value in the data set with RVFV MP-12 [2] (10μg/mL) is reported as “inhibited RVFV infection”. Besides, in the data set on RVFV MP-12 [2] (10μg/mL, pH 5.2), the “RVFV infection in acid-washed, BafA-treated cells” value is reported as “decreased RVFV infection”. For the same compound, the “decrease of viral replication in the brain” value with RVFV ZH501 [16] is recorded as “more than 5 logs”. The “Neutralization (relative RVFV infection)” value in the data set with RVFV MP-12 [17] is 1.27 and 1.194 and 1.159 and 1.08. Besides, the “RVFV infection, neutralization condition” value in the data set on RVFV MP-12 [17] (24 hours) is given as “failed to neutralize RVFV”. In the data set on RVFV MP-12 [18], the “Rep 1 rel infection” value was 1.242 and 0.7928. Further, in the data set on RVFV MP-12 [18], the “Rep 2 rel infection” value was 1.2338 and 0.6802. For the same compound, the “RVFV RNA after lipopeptide pretreatment” value in the data set with RVFV MP-12 [19] is given as “decreased RVFV RNA”. Besides, the “RVFV RNA levels in the presence of TPCA-1 or IKK 16” value in the data set on RVFV MP-12 [19] (10μg/mL, 24h) was “significantly decreased”. For the same compound, the “Mouse cortical neurons Rel. infection” value was 0.9744 and 0.948 and 1.028 with RVFV MP-12 [20] (0.016 ug/mL); 1.018 and 0.9269 and 0.9842 with RVFV MP-12 [20] (0.08 ug/mL); 1.0033 and 0.9456 and 0.9907 in the data set with RVFV MP-12 [20] (0.4 ug/mL); 1.058 and 0.9085 and 1.0272 in the data set with RVFV MP-12 [20] (2 ug/mL); 0.3619 and 0.3566 and 0.3035 with RVFV MP-12 [20] (10 ug/mL).

On to `NC(=O)Nc1sc(-c2ccc(F)cc2)cc1C(N)=O` [TPCA-1, 2-[(aminocarbonyl)amino]-5-(4-fluorophenyl)-3-thiophenecarboxamide], for which the “transcription of NF-κB target genes Tnfa and Cxcl1 after Pam3CSK4 stimulation” value in [21] is on record as “blunted transcription”.

As for FSL-1, in the data set with RVFV MP-12 [1], the “relative RVFV infection … Rep 1” value was found to be 105.077 and the “relative RVFV infection … Rep 2” value was 120.652.

IKK 16: in data set [21], the “transcription of NF-κB target genes Tnfa and Cxcl1 after Pam3CSK4 stimulation” value is on record as “blunted transcription”.

Take Pam2CSK4: in data set [4], the “Rel. VSV-RVFV RNA” value was 0.4225 and 0.2236 and 0.215; the VSV-RVFV replication entry is “also reduced VSV-RVFV infection, although it was significantly weaker than Pam3CSK4”. In addition, in the data set on RVFV MP-12 [1], the “RVFV infection in neurons in screen” value was “did not decrease RVFV infection”; the “Rep 1 rel infection” value was 1.076 and 1.061; the “relative RVFV infection … Rep 1” value worked out at 106.055; the “relative RVFV infection … Rep 2” value was 122.343. In addition, the “VSV RNA replication” value with VSV-GFP [14] is listed as “no antiviral effect”. In the data set on RVFV MP-12 [19], the “Rel. Fold change RVFV RNA” value was 0.741 and 1.189; the “RVFV RNA after lipopeptide pretreatment” value is “no antiviral effect”. In data set [21], the “Rel. Fold change Cxcl1 RNA” value is 1030.97 and 740.202; the “Rel. Fold change Tnfa RNA” value is 157.572 and 100.256. Further, the “inflammatory gene transcription (Tnfa, Cxcl1, Cxcl10)” value in data set [21] (10μg/mL for 4h) is recorded as “induced inflammatory gene transcription”. For the same compound, in the data set with La Crosse virus (LACV), the “Rel. LACV RNA” value was 0.9766 and 0.5238 and 0.6648 and 0.9475; the “antiviral effect on LACV (qPCR and microscopy)” value is listed as “no antiviral effect”.

The values are drawn from publication PMC11236204 (PLOS Pathogens, 2024).
